In patent publication US8148391B2 (Cephalon, Inc., priority 2006, dated 2012):
Where two headings read alike, the source gives them in different places.

Experiments:
[1] = target: T1, baculovirus-expressed ALK (Homo sapiens, UniProt Q9UM73); assay: ALK Kinase Assay (ELISA-type, time-resolved fluorescence); format: biochemical
T1 construct: host or cells: baculovirus expression system
Summary of the method: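 Plates coated with phospholipase C-γ substrate (10 μg/mL in TBS); reaction started with 30 ng/ml ALK and run 15 min at 37° C. Phosphorylated substrate detected with Eu-N1-labeled PT66 antibody. IC50 from sigmoidal variable-slope fit of percent inhibition vs log concentration.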

[2] = target: T2, c-Met (cytoplasmic domain) (Homo sapiens, UniProt P08581); assay: c-Met Kinase Assay (same methods as for ALK, with modifications); format: biochemical
T2 construct: 10 ng/mL c-Met (cytoplasmic domain, Invitrogen Corporation #PV3143); purchased Invitrogen Corporation PV3143
Method: Briefly, each 96-well plate was coated with 100 μL/well of 10 μg/mL substrate (phospholipase C-γ) in Tris-buffered saline (TBS). […] The reaction was initiated by adding enzyme (30 ng/ml ALK) and was allowed to proceed at 37° C. for 15 minutes. Detection of the phosphorylated product was performed by adding 100 μl/well of Eu-N1 labeled PT66 antibody (Perkin Elmer # AD0041).
Data analysis was performed using ActivityBase (IDBS, Guilford, UK). IC50 values were calculated by plotting percent inhibition versus log10 of the concentration of compound and fitting to the nonlinear regression sigmoidal dose-response (variable slope) equation in XLFit (IDBS, Guilford, UK).
Reactions were initiated with 10 ng/mL c-Met (cytoplasmic domain, Invitrogen Corporation #PV3143).

[3] = 1 μM ATP (Km level), 30 ng/ml ALK, 37° C., 15 minutes, read-out: ALK Activity (ALK kinase inhibition, IC50 class)
[4] = 1 μM ATP (Km level), 10 ng/mL c-Met, read-out: cMet Activity (c-Met kinase inhibition, IC50 class)
[5] = 1 μM ATP (Km level), read-out: ALK Activity (ALK Kinase Inhibition, IC50)
[6] = 1 μM ATP (Km level), read-out: cMet Activity (c-Met Kinase Inhibition, IC50)
[7] = ALK kinase inhibition, 1 μM ATP, read-out: ALK Activity
[8] = c-Met kinase inhibition, 1 μM ATP, read-out: cMet Activity
[9] = ALK kinase inhibition, 1 μM ATP (Km level), read-out: ALK Activity
[10] = c-Met kinase inhibition, 1 μM ATP (Km level), read-out: cMet Activity

T2 sequence (P08581 956-1390 limits assumed): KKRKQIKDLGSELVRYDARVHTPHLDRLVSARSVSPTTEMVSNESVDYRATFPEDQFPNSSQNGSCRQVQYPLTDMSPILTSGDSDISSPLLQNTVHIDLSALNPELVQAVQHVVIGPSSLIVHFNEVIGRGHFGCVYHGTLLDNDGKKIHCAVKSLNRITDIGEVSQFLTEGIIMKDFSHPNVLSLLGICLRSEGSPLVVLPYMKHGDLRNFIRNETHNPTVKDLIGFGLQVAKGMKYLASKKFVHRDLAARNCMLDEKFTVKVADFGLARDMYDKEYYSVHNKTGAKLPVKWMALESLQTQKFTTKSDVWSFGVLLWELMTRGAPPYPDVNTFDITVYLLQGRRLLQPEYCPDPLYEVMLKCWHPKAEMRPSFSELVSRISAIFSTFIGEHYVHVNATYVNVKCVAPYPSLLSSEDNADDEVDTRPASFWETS
T1 sequence (Q9UM73 19-1620): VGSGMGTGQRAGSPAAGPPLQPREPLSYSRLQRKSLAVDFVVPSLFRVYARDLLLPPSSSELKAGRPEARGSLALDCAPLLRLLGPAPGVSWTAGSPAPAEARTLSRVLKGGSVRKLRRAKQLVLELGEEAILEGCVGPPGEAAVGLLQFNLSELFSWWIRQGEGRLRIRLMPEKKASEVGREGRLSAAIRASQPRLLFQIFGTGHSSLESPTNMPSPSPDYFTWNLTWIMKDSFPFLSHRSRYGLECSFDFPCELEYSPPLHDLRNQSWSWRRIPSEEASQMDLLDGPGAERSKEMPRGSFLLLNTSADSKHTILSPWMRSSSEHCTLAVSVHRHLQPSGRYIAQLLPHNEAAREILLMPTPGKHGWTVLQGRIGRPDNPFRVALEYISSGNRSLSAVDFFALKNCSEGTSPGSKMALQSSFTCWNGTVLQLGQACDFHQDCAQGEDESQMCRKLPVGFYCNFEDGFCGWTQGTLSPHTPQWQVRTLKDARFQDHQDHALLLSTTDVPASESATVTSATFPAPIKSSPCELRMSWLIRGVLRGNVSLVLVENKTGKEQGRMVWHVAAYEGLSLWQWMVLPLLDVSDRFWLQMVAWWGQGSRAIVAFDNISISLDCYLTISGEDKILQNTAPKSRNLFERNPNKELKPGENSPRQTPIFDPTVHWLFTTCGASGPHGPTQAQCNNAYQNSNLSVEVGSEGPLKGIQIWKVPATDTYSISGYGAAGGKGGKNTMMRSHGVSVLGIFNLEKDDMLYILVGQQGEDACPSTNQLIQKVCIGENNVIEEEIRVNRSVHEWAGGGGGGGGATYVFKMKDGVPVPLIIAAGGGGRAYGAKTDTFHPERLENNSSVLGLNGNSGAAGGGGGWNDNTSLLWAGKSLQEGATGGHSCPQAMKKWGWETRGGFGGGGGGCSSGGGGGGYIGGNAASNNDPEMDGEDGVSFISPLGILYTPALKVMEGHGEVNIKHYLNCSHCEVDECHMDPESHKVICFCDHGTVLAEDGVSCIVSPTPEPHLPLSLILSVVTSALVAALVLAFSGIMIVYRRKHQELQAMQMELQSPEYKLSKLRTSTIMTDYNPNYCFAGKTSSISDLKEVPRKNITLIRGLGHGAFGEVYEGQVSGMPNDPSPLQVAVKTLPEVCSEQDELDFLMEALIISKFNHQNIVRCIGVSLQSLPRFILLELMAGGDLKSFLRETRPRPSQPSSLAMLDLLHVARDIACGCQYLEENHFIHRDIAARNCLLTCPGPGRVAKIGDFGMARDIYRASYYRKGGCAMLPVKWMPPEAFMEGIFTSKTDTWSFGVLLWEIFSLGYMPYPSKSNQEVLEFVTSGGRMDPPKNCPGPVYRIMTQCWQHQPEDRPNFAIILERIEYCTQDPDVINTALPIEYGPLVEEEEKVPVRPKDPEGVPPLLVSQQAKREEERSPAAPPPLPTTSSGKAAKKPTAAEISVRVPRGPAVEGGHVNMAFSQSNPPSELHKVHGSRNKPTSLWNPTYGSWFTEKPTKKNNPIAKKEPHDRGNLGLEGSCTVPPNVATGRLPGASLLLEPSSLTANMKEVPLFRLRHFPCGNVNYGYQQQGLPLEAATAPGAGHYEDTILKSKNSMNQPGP

Row | Compound | IC50 [1, 5] [nM] | IC50 [2, 6] [nM] | IC50 [1, 7] [nM] | IC50 [2, 8] [nM] | further results
1 | COCCOc1ccc(Nc2nc(Nc3cc4c(cc3OC)CCN(Cc3ncco3)CC4)ncc2Cl)c(OC)c1 [Example 1174, 5-Chloro-N*4*-[2-methoxy-4-(2-methoxy-ethoxy)-phenyl]-N*2*-(8-methoxy-3-oxazol-2-ylmethyl-2,3,4,5-tetrahydro-1H-benzo[d]azepin-7-yl)-pyrimidine-2,4-diamine] | – | – | – | – | IC50 [1, 3]: < 100 nM; IC50 [2, 4]: > 10000 nM
2 | COc1ccc(Nc2nc(Nc3cc4c(cc3OC)CCN(CC(=O)N(C)C)CC4)ncc2Cl)c(OC)n1 [Example 1200, 2-{7-[5-Chloro-4-(2,6-dimethoxy-pyridin-3-ylamino)-pyrimidin-2-ylamino]-8-methoxy-1,2,4,5-tetrahydro-benzo[d]azepin-3-yl}-N,N-dimethyl-acetamide] | – | – | – | – | IC50 [1, 3]: < 100 nM; IC50 [2, 4]: 1000 to 10000 nM
3 | COc1c(Nc2ncc(Cl)c(Nc3ccccc3S(=O)(=O)N3CCCC3)n2)ccc2c1CCCC(NCCO)C2 (stereo not shown) [Example 964, 2-(2-{5-Chloro-4-[2-(pyrrolidine-1-sulfonyl)-phenylamino]-pyrimidin-2-ylamino}-1-methoxy-6,7,8,9-tetrahydro-5H-benzocyclohepten-6-ylamino)-ethanol] | < 100 | > 10000 | – | – | –
4 | CCN1C(=O)CN(C(C)=O)Cc2ccc(Nc3ncc(Cl)c(Nc4ccsc4C(=O)NC)n3)cc21 [Example 1853, 3-[2-(4-Acetyl-1-ethyl-2-oxo-2,3,4,5-tetrahydro-1H-benzo[e][1,4]diazepin-8-ylamino)-5-chloro-pyrimidin-4-ylamino]-thiophene-2-carboxylic acid methylamide] | – | – | 1000 to 10000 | < 100 | –
5 | CCN1CCN(CC)c2cc(Nc3ncc(Cl)c(Nc4ccccc4S(=O)(=O)N(C)C)n3)ccc2C1 [Example 730, 2-[5-Chloro-2-(1,4-diethyl-2,3,4,5-tetrahydro-1H-benzo[e][1,4]diazepin-8-ylamino)-pyrimidin-4-ylamino]-N,N-dimethyl-benzenesulfonamide] | < 100 | < 100 | – | – | –
6 | CNC(=O)c1cccc(C)c1Nc1nc(Nc2ccc3c(c2)C(=O)NCCC3)ncc1Cl [Example 401, 2-[5-Chloro-2-(1-oxo-2,3,4,5-tetrahydro-1H-benzo[c]azepin-8-ylamino)-pyrimidin-4-ylamino]-3,N-dimethyl-benzamide] | – | – | – | – | IC50 [1, 9]: > 10000 nM; IC50 [2, 10]: 100 to 1000 nM
7 | CNC(=O)c1scc(C)c1Nc1nc(Nc2ccc3c(c2)NC(=O)CN(C(C)=O)C3)ncc1Cl [Example 1850, 3-[2-(4-Acetyl-2-oxo-2,3,4,5-tetrahydro-1H-benzo[e][1,4]diazepin-8-ylamino)-5-chloro-pyrimidin-4-ylamino]-4-methyl-thiophene-2-carboxylic acid methylamide] | – | – | 100 to 1000 | 100 to 1000 | –
8 | CCNC(=O)c1cccc(F)c1Nc1nc(Nc2ccc3c(c2)CNC(=O)CCN3C(C)=O)ncc1Cl [Example 1228, 2-[2-(1-Acetyl-4-oxo-1,2,3,4,5,6-hexahydro-benzo[b][1,5]diazocin-8-ylamino)-5-chloro-pyrimidin-4-ylamino]-N-ethyl-3-fluoro-benzamide] | – | – | – | – | IC50 [1, 3]: 100 to 1000 nM; IC50 [2, 4]: < 100 nM
9 | CNC(=O)c1ccccc1Nc1nc(Nc2ccc3c(c2)CCN(C(=O)C(F)(F)F)CC3)ncc1Cl [Example 44, 2-{5-Chloro-2-[3-(2,2,2-trifluoro-acetyl)-2,3,4,5-tetrahydro-1H-benzo[d]azepin-7-ylamino]-pyrimidin-4-ylamino}-N-methyl-benzamide] | – | – | – | – | IC50 [1, 9]: < 100 nM; IC50 [2, 10]: < 100 nM
10 | 3-({2-[5-Chloro-2-(1-ethyl-5,5-dimethyl-2-oxo-2,3,4,5-tetrahydro-1H-1-benzazepin-8-ylamino)-pyrimidin-4-ylamino]-3-fluoro-phenyl}-methyl-amino)-propionitrile [Example 1265] | – | – | – | – | IC50 [1, 3]: 100 to 1000 nM; IC50 [2, 4]: 1000 to 10000 nM
11 | CNC(=O)c1cccc(Cl)c1Nc1nc(Nc2ccc3c(c2)-c2nccn2CCC3)ncc1Cl [Example 1845, 2-[5-Chloro-2-(5,6-dihydro-4H-1,3a-diaza-benzo[e]azulen-9-ylamino)-pyrimidin-4-ylamino]-3-chloro-N-methyl-benzamide] | – | – | 100 to 1000 | 100 to 1000 | –
12 | COc1c(Nc2ncc(Cl)c(Nc3ccccc3S(=O)(=O)C(C)C)n2)ccc2c1CCC(N1CCN(C)CC1)CC2 (racemic) [Example 914, 5-Chloro-N*2*-[1-methoxy-7-(4-methyl-piperazin-1-yl)-6,7,8,9-tetrahydro-5H-benzocyclohepten-2-yl]-N*4*-[2-(propane-2-sulfonyl)-phenyl]-pyrimidine-2,4-diamine] | < 100 | 1000 to 10000 | – | – | –
13 | CNC(=O)c1ccccc1Nc1nc(Nc2ccc3c(c2)C2CN(C(C)C)CC3O2)ncc1Cl (stereo not shown) [Example 62, 2-[5-Chloro-2-(10-isopropyl-12-oxa-10-aza-tricyclo[6.3.1.0*2,7*]dodeca-2,4,6-trien-4-ylamino)-pyrimidin-4-ylamino]-N-methyl-benzamide] | – | – | – | – | IC50 [1, 9]: < 100 nM; IC50 [2, 10]: 100 to 1000 nM
14 | COc1cc(N2CCOCC2)ccc1Nc1nc(Nc2ccc3c(c2)CCC(NCC(F)F)CC3)ncc1Cl (stereo not shown) [Example 659, 5-Chloro-N*2*-[7-(2,2-difluoro-ethylamino)-6,7,8,9-tetrahydro-5H-benzocyclohepten-2-yl]-N*4*-(2-methoxy-4-morpholin-4-yl-phenyl)-pyrimidine-2,4-diamine] | < 100 | > 10000 | – | – | –
15 | CCN1CC2CCC(C1)c1cc(Nc3ncc(Cl)c(Nc4ccccc4C(=O)NC)n3)ccc12 (stereo not shown) [Example 271, 2-[5-Chloro-2-(10-ethyl-10-aza-tricyclo[6.3.2.0*2,7*]trideca-2,4,6-trien-4-ylamino)-pyrimidin-4-ylamino]-N-methyl-benzamide] | – | – | – | – | IC50 [1, 9]: < 100 nM; IC50 [2, 10]: < 100 nM
16 | COc1cc(N2CCOCC2)ccc1Nc1nc(Nc2ccc3c(c2)CCCCN3C)ncc1Cl [Example 105, 5-Chloro-N*4*-(2-methoxy-4-morpholin-4-yl-phenyl)-N*2*-(1-methyl-2,3,4,5-tetrahydro-1H-benzo[b]azepin-7-yl)-pyrimidine-2,4-diamine] | – | – | – | – | IC50 [1, 9]: < 100 nM; IC50 [2, 10]: > 10000 nM

Second part, led by results:

Row | IC50 [1, 5] [nM] | IC50 [2, 6] [nM] | IC50 [1, 7] [nM] | IC50 [2, 8] [nM] | Compound | further results
17 | – | – | < 100 | > 10000 | COc1cc(N2CCOCC2)ccc1Nc1nc(Nc2ccc3c(c2)N(CC(C)C)C(=O)CCC3(C)C)ncc1Cl [Example 1594, 8-[5-Chloro-4-(2-methoxy-4-morpholin-4-yl-phenylamino)-pyrimidin-2-ylamino]-1-isobutyl-5,5-dimethyl-1,3,4,5-tetrahydro-benzo[b]azepin-2-one] | –
18 | – | – | < 100 | > 10000 | CCN1CC(=O)Nc2cc(Nc3ncc(Cl)c(Nc4ccccc4S(=O)(=O)C(C)C)n3)c(OC)cc2C1 [Example 1660, 8-{5-Chloro-4-[2-(propane-2-sulfonyl)-phenylamino]-pyrimidin-2-ylamino}-4-ethyl-7-methoxy-1,3,4,5-tetrahydro-benzo[e][1,4]diazepin-2-one] | –
19 | < 100 | > 10000 | – | – | COc1c(Nc2ncc(Cl)c(Nc3ccccc3S(=O)(=O)C(C)C)n2)ccc2c1CCCC(NCCO)C2 (stereo not shown) [Example 961, 2-(2-{5-Chloro-4-[2-(propane-2-sulfonyl)-phenylamino]-pyrimidin-2-ylamino}-1-methoxy-6,7,8,9-tetrahydro-5H-benzocyclohepten-6-ylamino)-ethanol] | –
20 | < 100 | 100 to 1000 | – | – | CNC(=O)C1C2C=CC(C2)C1Nc1nc(Nc2ccc3c(c2)CCC(O)CC3)ncc1Cl (stereo not drawn) [Example 625, (2-exo-3-exo)-3-[5-Chloro-2-(7-hydroxy-6,7,8,9-tetrahydro-5H-benzocyclohepten-2-ylamino)-pyrimidin-4-ylamino]-bicyclo[2.2.1]hept-5-ene-2-carboxylic acid methylamide] | –
21 | < 100 | 1000 to 10000 | – | – | COc1cc2c(cc1Nc1ncc(Cl)c(Nc3ccccc3S(=O)(=O)N(C)C)n1)CCN(CC1COCCO1)CC2 (stereo not shown) [Example 637, 2-[5-Chloro-2-(3-[1,4]dioxan-2-ylmethyl-8-methoxy-2,3,4,5-tetrahydro-1H-benzo[d]azepin-7-ylamino)-pyrimidin-4-ylamino]-N,N-dimethyl-benzenesulfonamide] | –
22 | – | – | < 100 | < 100 | 2-[5-Chloro-2-(2-methyl-3-oxo-2,3,4,5-tetrahydro-1H-benzo[c]azepin-8-ylamino)-pyrimidin-4-ylamino]-N-methyl-benzamide and 2-[5-chloro-2-(2-methyl-3-oxo-2,3-dihydro-1H-benzo[c]azepin-8-ylamino)-pyrimidin-4-ylamino]-N-methyl-benzamide [Example 1798] | –
23 | – | – | < 100 | < 100 | CNC(=O)c1cccc(F)c1Nc1nc(Nc2ccc3c(c2)-c2nccn2CCC3)ncc1Cl [Example 1844, 2-[5-Chloro-2-(5,6-dihydro-4H-1,3a-diaza-benzo[e]azulen-9-ylamino)-pyrimidin-4-ylamino]-3-fluoro-N-methyl-benzamide] | –
